Source: the supplement of paper PMC10627819

Assays:
S. pneumoniae D39V [1] = assay: Bliss interaction score (quartile over a dose matrix) (fitness difference); higher = more antagonism (negative = synergy)
Summary of the method: (§1)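 The Bliss score is observed minus expected fitness, where expected fitness is the product of the single-drug fitness values inferred from the combination data. Fitness is the OD595 at the onset of stationary phase over the plate's robust no-drug mean, capped at 1. Scores are summarised by quartiles over technical, biological and donor/recipient replicates.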

B. subtilis 168 [2] = assay: as above
Summary of the method: as §1

S. aureus DSM 20231 = assay: as above
Summary of the method: as §1

S. aureus Newman [3] = assay: as above
Summary of the method: as §1

S. pneumoniae D39V [4] = assay: fitness (endpoint OD595 vs no drug) (fraction); higher = more growth
Summary of the method: (§2)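 With the first reading as background, OD595 was measured every 30 min for 14 h in 384-well plates kept at 37 °C and inoculated at OD595 0.01. TSB, LB Lennox or CY was the medium. Fitness is the optical density at the transition into stationary phase divided by the robust mean of no-drug control wells, with a cap of 1.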

B. subtilis 168 [5] = assay: as above
Summary of the method: as §2

S. aureus Newman [6] = assay: as above
Summary of the method: as §2
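For Bliss interaction score (quartile over a dose matrix) in this document: first quartile when negative (synergy) and third quartile when positive (antagonism).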
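For fitness (endpoint OD595 vs no drug) in this document: OD595 on entry to stationary phase over no-drug wells; at most 1.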

O=C(O)c1cn(C2CC2)c2cc(N3CCNCC3)c(F)cc2c1=O [Ciprofloxacin] + CN[C@@H]1[C@H](O)[C@H](NC)[C@H]2O[C@@]3(O)C(=O)C[C@@H](C)O[C@H]3O[C@@H]2[C@H]1O [Spectinomycin]
Conditions | Bliss interaction score
B. subtilis 168 [2] | 0.0965
S. aureus DSM 20231 | 0.0785
S. aureus Newman [3] | -0.0629
S. pneumoniae D39V [1] | -0.0847

fitness
Conditions | partner 2 µg/mL | partner 4 µg/mL | partner 8 µg/mL | partner 16 µg/mL
B. subtilis 168 [5], first compound 0.0098 µg/mL | 0.949 | 0.897 | 0.94 | –
B. subtilis 168 [5], first compound 0.0195 µg/mL | 0.694 | 0.741 | 0.789 | –
B. subtilis 168 [5], first compound 0.039 µg/mL | – | 0.257 | – | –
S. aureus Newman [6], first compound 0.0375 µg/mL | – | 0.643 | 0.666 | 0.622
S. aureus Newman [6], first compound 0.075 µg/mL | – | 0.627 | – | 0.615
S. aureus Newman [6], first compound 0.15 µg/mL | – | – | 0.0938 | 0.0557
S. pneumoniae D39V [4], first compound 0.125 µg/mL | – | 0.919 | 0.913 | 0.706
S. pneumoniae D39V [4], first compound 0.25 µg/mL | – | 0.797 | 0.795 | –
S. pneumoniae D39V [4], first compound 0.5 µg/mL | – | – | – | 0.446

fitness, one replicate
Conditions | first compound 0.078 µg/mL | first compound 0.156 µg/mL | first compound 0.25 µg/mL | first compound 0.312 µg/mL
S. aureus Newman [6], partner 16 µg/mL | 0.203 | 0.0195 | – | 0.0278
S. aureus Newman [6], partner 32 µg/mL | 0.116 | 0.0216 | – | 0.0094
S. aureus Newman [6], partner 64 µg/mL | 0.0489 | 0.0519 | – | 0.102
S. pneumoniae D39V [4], partner 16 µg/mL | – | – | 0.48 | –

O=C(O)c1cn(C2CC2)c2cc(N3CCNCC3)c(F)cc2c1=O [Ciprofloxacin] + CN[C@@H]1[C@H](O[C@H]2[C@H](O[C@H]3[C@H](O)[C@@H](O)[C@H](N=C(N)N)[C@@H](O)[C@@H]3N=C(N)N)O[C@@H](C)[C@]2(O)C=O)O[C@@H](CO)[C@H](O)[C@H]1O [Streptomycin]
Conditions | Bliss interaction score
B. subtilis 168 [2] | -0.109
S. aureus DSM 20231 | -0.0869
S. aureus Newman [3] | 0.0876
S. pneumoniae D39V [1] | -0.0549

fitness
Conditions | partner 1 µg/mL | partner 2 µg/mL | partner 4 µg/mL | partner 8 µg/mL
B. subtilis 168 [5], first compound 0.0098 µg/mL | – | 0.861 | – | –
B. subtilis 168 [5], first compound 0.0195 µg/mL | – | 0.601 | – | –
B. subtilis 168 [5], first compound 0.039 µg/mL | – | 0.0408 | 0.0521 | 0.0363
S. aureus Newman [6], first compound 0.0375 µg/mL | 0.737 | 0.7 | – | –
S. aureus Newman [6], first compound 0.075 µg/mL | 0.68 | 0.65 | – | –
S. aureus Newman [6], first compound 0.15 µg/mL | – | 0.0504 | 0.066 | –
S. pneumoniae D39V [4], first compound 0.125 µg/mL | – | 0.916 | 0.936 | 0.909
S. pneumoniae D39V [4], first compound 0.25 µg/mL | – | 0.872 | 0.774 | 0.765

S. pneumoniae D39V [4], partner 16 µg/mL, one replicate
Conditions | fitness
first compound 0.125 µg/mL | 0.739
first compound 0.25 µg/mL | 0.668
first compound 0.5 µg/mL | 0.379

O=C(O)c1cn(C2CC2)c2cc(N3CCNCC3)c(F)cc2c1=O [Ciprofloxacin] + COc1c(N2C[C@@H]3CCCN[C@@H]3C2)c(F)cc2c(=O)c(C(=O)O)cn(C3CC3)c12 [Moxifloxacin]
Conditions | Bliss interaction score
B. subtilis 168 [2] | 0.026
S. aureus DSM 20231 | -0.117
S. aureus Newman [3] | -0.2
S. pneumoniae D39V [1] | -0.0855

Conditions | fitness
B. subtilis 168 [5], first compound 0.0098 µg/mL, partner 0.0625 µg/mL | 0.051
B. subtilis 168 [5], first compound 0.0098 µg/mL, partner 0.125 µg/mL | 0.055
B. subtilis 168 [5], first compound 0.0098 µg/mL, partner 2 µg/mL | 0.0402
B. subtilis 168 [5], first compound 0.0098 µg/mL, partner 4 µg/mL | 0.0314
B. subtilis 168 [5], first compound 0.0098 µg/mL, partner 8 µg/mL | 0.0305
B. subtilis 168 [5], first compound 0.0195 µg/mL, partner 0.0312 µg/mL | 0.0426
B. subtilis 168 [5], first compound 0.0195 µg/mL, partner 0.0625 µg/mL | 0.0567
B. subtilis 168 [5], first compound 0.0195 µg/mL, partner 0.125 µg/mL | 0.0402
B. subtilis 168 [5], first compound 0.0195 µg/mL, partner 2 µg/mL | 0.0358
B. subtilis 168 [5], first compound 0.0195 µg/mL, partner 4 µg/mL | 0.027
B. subtilis 168 [5], first compound 0.0195 µg/mL, partner 8 µg/mL | 0.0243
B. subtilis 168 [5], first compound 0.039 µg/mL, partner 0.0312 µg/mL | 0.0379
B. subtilis 168 [5], first compound 0.039 µg/mL, partner 0.0625 µg/mL | 0.0522
B. subtilis 168 [5], first compound 0.039 µg/mL, partner 0.125 µg/mL | 0.0269
B. subtilis 168 [5], first compound 0.039 µg/mL, partner 2 µg/mL | 0.038
B. subtilis 168 [5], first compound 0.039 µg/mL, partner 4 µg/mL | 0.0353
B. subtilis 168 [5], first compound 0.039 µg/mL, partner 8 µg/mL | 0.0328
S. aureus Newman [6], first compound 0.0375 µg/mL, partner 0.0075 µg/mL | 0.579
S. aureus Newman [6], first compound 0.0375 µg/mL, partner 0.015 µg/mL | 0.414
S. aureus Newman [6], first compound 0.0375 µg/mL, partner 0.03 µg/mL | 0.0123
S. aureus Newman [6], first compound 0.075 µg/mL, partner 0.0075 µg/mL | 0.322
S. aureus Newman [6], first compound 0.075 µg/mL, partner 0.015 µg/mL | 0.0421
S. aureus Newman [6], first compound 0.075 µg/mL, partner 0.03 µg/mL | 0.0176
S. aureus Newman [6], first compound 0.15 µg/mL, partner 0.0075 µg/mL | 0.0344
S. aureus Newman [6], first compound 0.15 µg/mL, partner 0.015 µg/mL | 0.03
S. aureus Newman [6], first compound 0.15 µg/mL, partner 0.03 µg/mL | 0.0119
S. pneumoniae D39V [4], first compound 0.125 µg/mL, partner 0.005 µg/mL | 0.944
S. pneumoniae D39V [4], first compound 0.125 µg/mL, partner 0.01 µg/mL | 0.944
S. pneumoniae D39V [4], first compound 0.125 µg/mL, partner 0.02 µg/mL | 0.882
S. pneumoniae D39V [4], first compound 0.125 µg/mL, partner 0.0312 µg/mL | 0.0716
S. pneumoniae D39V [4], first compound 0.125 µg/mL, partner 0.0625 µg/mL | 0.0294
S. pneumoniae D39V [4], first compound 0.125 µg/mL, partner 0.125 µg/mL | 0.0127
S. pneumoniae D39V [4], first compound 0.25 µg/mL, partner 0.005 µg/mL | 0.887
S. pneumoniae D39V [4], first compound 0.25 µg/mL, partner 0.01 µg/mL | 0.892
S. pneumoniae D39V [4], first compound 0.25 µg/mL, partner 0.02 µg/mL | 0.812
S. pneumoniae D39V [4], first compound 0.5 µg/mL, partner 0.005 µg/mL | 0.686
S. pneumoniae D39V [4], first compound 0.5 µg/mL, partner 0.01 µg/mL | 0.692
S. pneumoniae D39V [4], first compound 0.5 µg/mL, partner 0.02 µg/mL | 0.628
S. pneumoniae D39V [4], first compound 0.5 µg/mL, partner 0.0312 µg/mL | 0.0441
S. pneumoniae D39V [4], first compound 0.5 µg/mL, partner 0.0625 µg/mL | 0.0537
S. pneumoniae D39V [4], first compound 0.5 µg/mL, partner 0.125 µg/mL | 0.0249

S. pneumoniae D39V [4], first compound 0.25 µg/mL, one replicate
Conditions | fitness
partner 0.0312 µg/mL | 0.0113
partner 0.0625 µg/mL | 0.0007
partner 0.125 µg/mL | 0
